According to paper PMC8398714, “Synthesis and Evaluation of Biological Activities of Bis(spiropyrazolone)cyclopropanes: A Potential Application against Leishmaniasis” (Molecules, 2021):
Read-outs that look alike come from different tables or passages of the source.

How the values were obtained:
[1] = MTS cell viability assay on A-549 cells; assay type: cell-based; details: Homo sapiens; 48 h, 15-150 µM, mean ± SEM of triplicates
Description: Five tumor human cancer cell lines—cerebral astrocytoma (D-384), grade IV prostatic adenocarcinoma (PC-3), mammary adenocarcinoma (MCF-7), human colon carcinoma (RKO) and lung carcinoma (A-549)—along with one immortalized hamster cell line (CHO K-1) were used. The cells PC-3, MCF-7 and RKO were cultured in RPMI-1640, D-384 on DMEM and CHO K-1 on HAM F-12 medium supplemented with 10% fetal bovine serum (FBS, Invitrogen, Karlsruhe, Germany), 1% antibiotic-antimitotic solution (100 units/mL penicillin G, 100 µg/mL streptomycin, and 0.25 µg/mL amphotericin B, Gibco, Grand Island, NY, USA), and 1% L-glutamine (2 mM, Gibco). The cells were incubated at 37 °C in a 5% CO2 atmosphere. The viable cells were counted using the trypan blue exclusion method in a hemocytometer.
The MTS (5-[3-(carboxymethoxy)phenyl]-3-(4,5-dimethyl-2-thiazolyl)-2-(4-sulfo- phenyl)-2H-tetrazolium inner salt) cell viability assay was used to assess the inhibitory effects of the extracts on the survival of human cancer cell lines. A total of 3–5 × 10^3 cells/well were seeded into 96-well plates and were allowed to adhere for 24 h. […] Each concentration/assay was performed three times. Dimethyl sulfoxide (DMSO) was used as a negative control at a final concentration of 0.1% v/v, and 1 µM Doxorubicin was used as a positive control. The cells were incubated with the treatments for 48 h, after which 20 µL MTS (5 mg/mL, Aqueous One Solution Reagent, Gibco) was added and further incubated for 4 h at 37 °C. The absorbance was measured at 570 nm. The data obtained with cells treated with DMSO were defined to represent 100% viability.

[2] = test system: S. cerevisiae (W303 background); assay: Fungicidal activity (growth, OD600) on S. cerevisiae; assay type: cell-based, Saccharomyces cerevisiae; details: 24 h, OD600, concentrations 2.6 to 3000 µM, NA = no activity; for IC50: Saccharomyces cerevisiae, unit inferred, read-out: Inhibitory activity against S. cerevisiae W303 (IC50); for Inhibitory activity against S. cerevisiae W303 (IC50): unit not given
Description: Next, we determined the IC50 of bis(spiropyrazolone)cyclopropanes on a different eukaryotic model: the classical budding yeast S. cerevisiae. Cells were exposed to the compounds at concentrations ranging from 2.6 to 3000 µM for 24 h. The OD600 was measured to assess cell growth. […] These resistances could be explained by the presence of the fungal cell wall, which could limit the entry of bis(spiropyrazolone)cyclopropanes 4 into the cell. Other mechanisms cannot be ruled out, such as structural differences in molecular targets.
The antimicrobial activities of the synthesized compounds were tested against yeast S. cerevisiae (background W303), as described by Teran et al.. Concentrations ranging from 2468.7 to 2.4 µM were assayed.

[3] = Cytotoxicity, MTT assay on RAW 264.7 macrophages; assay type: cell-based; details: mouse
Description: Raw 264.7 (ATCC® TIB-71™) was maintained in Dulbecco’s Modified Eagle Medium (DMEM) (Gibco, Invitrogen, Gibco, Carlsbad, CA, USA) supplemented with 10% fetal bovine serum (FBS) (Eurobio, Les Ulis, France) and 100 IU/mL penicillin + 100 μg/mL streptomycin (Gibco), at 37 °C in a 5% CO2 atmosphere. The medium was renewed once a week. The viability was determined using MTT (Thiazolyl Blue Tetrazolium Bromide) dye assay as described before for leishmanicidal activity assessment, with some variations. Here, 5 × 10^4 cells/well in a final volume of 100 µL were deposited into a 96-well plate, in triplicate. Saponin (2.4 mg/mL) and untreated cells were used as positive control and negative control, respectively. A stock solution was prepared in DMSO and immediately diluted in media to obtain different serial concentrations (100–0.01 µM). After 48 h exposure to the compounds, 10 µL/well of MTT (5 mg/mL MTT in PBS) were added, and the plate was incubated at 37 °C for 2 h in the dark. Cells were pelleted by centrifugation at 4400 rpm for 10 min and the media was removed. Then, 100 µL/well of DMSO were added and the absorbance at 570 nm was recorded; a reference wavelength of 630 nm was used for background subtraction.

[4] = Stability of solutions by spectroscopic measurements; assay type: physicochemical; details: DMSO solution; 100 μM in DMSO, room temperature
[5] = RAW cells, 48 h, MTT, read-out: Cytotoxicity CC50
[6] = Statistical Analyses S1, unrounded mean of CC50 in RAW cells, unit inferred, read-out: CC50 original values, x.1 (Mean)

Compound | IC50 [1] | IC50 [2] | CC50 at 48 h [3, 5] | CC50 at 48 h [3, 6] | Inhibitory activity against S. cerevisiae W303 (IC50) [2] | half-life at 100 µM [4]
CC1=NN(c2ccccc2)C(=O)[C@@]12C(c1ccc(C(F)(F)F)cc1)[C@@]21C(=O)N(c2ccccc2)N=C1C (relative stereo) [4r, (5R*,6R*)-11-(4-Trifluoromethylphenyl)-4,10-dimethyl-2,8-diphenyl-2,3,8,9-tetraazadispiro[4.0.4.1]undeca-3,9-diene-1,7-dione] | 78.7 ± 7.9 µM | 1270 ± 119 µM | 6.5 ± 0.9 µM | 6.48 µM | – | –
CC1=NN(c2ccccc2)C(=O)[C@@]12C(c1ccc(OC(F)(F)F)cc1)[C@@]21C(=O)N(c2ccccc2)N=C1C (relative stereo) [4s, (5R*,6R*)-11-(4-Trifluoromethoxyphenyl)-4,10-dimethyl-2,8-diphenyl-2,3,8,9-tetraazadispiro[4.0.4.1]undeca-3,9-diene-1,7-dione] | 78.5 ± 7.08 µM | 789 ± 37.3 µM | 8.6 ± 3.2 µM | 8.63 µM | slight measurable effect | –
COc1ccc(C2[C@@]3(C(=O)N(c4ccccc4)N=C3C)[C@]23C(=O)N(c2ccccc2)N=C3C)cc1 (relative stereo) [4e, (5R*,6R*)-11-(4-Methoxyphenyl)-4,10-dimethyl-2,8-diphenyl-2,3,8,9-tetraazadispiro[4.0.4.1]undeca-3,9-diene-1,7-dione] | – | – | 7.3 ± 2 µM | 7.28 µM | – | –
CC1=NN(c2ccccc2)C(=O)[C@@]12C(c1cccc(F)c1)[C@@]21C(=O)N(c2ccccc2)N=C1C (relative stereo) [4t, (5R*,6R*)-11-(3-Fluorophenyl)-4,10-dimethyl-2,8-diphenyl-2,3,8,9-tetraazadispiro[4.0.4.1]undeca-3,9-diene-1,7-dione] | – | – | 2.7 ± 0.7 µM | 2.75 µM | – | –
CSc1ccc(C2[C@]3(C(=O)N(c4ccccc4)N=C3C)[C@@]23C(=O)N(c2ccccc2)N=C3C)cc1 (relative stereo) [4u, (5R*,6R*)-11-(4-Thiomethylphenyl)-4,10-dimethyl-2,8-diphenyl-2,3,8,9-tetraazadispiro[4.0.4.1]undeca-3,9-diene-1,7-dione] | – | – | 9.3 ± 3.4 µM | 9.3 µM | – | –
CC1=NN(c2ccccc2)C(=O)[C@@]12C(c1ccccc1[N+](=O)[O-])[C@@]21C(=O)N(c2ccccc2)N=C1C (relative stereo) [4c, (5R*,6R*)-11-(2-Nitrophenyl)-4,10-dimethyl-2,8-diphenyl-2,3,8,9-tetraazadispiro[4.0.4.1]undeca-3,9-diene-1,7-dione] | – | – | 2.3 ± 0.2 µM | 2.26 µM | – | –
CC1=NN(c2ccccc2)C(=O)[C@@]12C(c1ccccc1)[C@@]21C(=O)N(c2ccccc2)N=C1C (relative stereo) [4b, (5R*,6R*)-4,10-Dimethyl-2,8,11-triphenyl-2,3,8,9-tetraazadispiro[4.0.4.1]undeca-3,9-diene-1,7-dione] | – | 1380 ± 304 µM | 3.4 ± 1.5 µM | 3.44 µM | – | ~7.85 h
COC(=O)c1ccc(C2[C@@]3(C(=O)N(c4ccccc4)N=C3C)[C@]23C(=O)N(c2ccccc2)N=C3C)cc1 (relative stereo) [4q, (5R*,6R*)-Methyl-4[4,10-dimethyl-2,8-diphenyl-2,3,8,9-tetraazadispiro[4.0.4.1]undeca-3,9-diene-1,7-dione-11-yl]benzoate] | 85.1 ± 10.5 µM | 1090 ± 38.5 µM | 4 ± 0.8 µM | 4.01 µM | slight measurable effect | –
CC1=NN(c2ccccc2)C(=O)[C@@]12C(c1cccc([N+](=O)[O-])c1)[C@@]21C(=O)N(c2ccccc2)N=C1C (relative stereo) [4d, (5R*,6R*)-11-(3-Nitrophenyl)-4,10-dimethyl-2,8-diphenyl-2,3,8,9-tetraazadispiro[4.0.4.1]undeca-3,9-diene-1,7-dione] | 94.8 ± 4.54 µM | – | 3.9 ± 1.1 µM | 3.92 µM | – | –
CC1=NN(c2ccccc2)C(=O)[C@@]12C(c1ccc([N+](=O)[O-])cc1)[C@@]21C(=O)N(c2ccccc2)N=C1C (relative stereo) [4k, (5R*,6R*)-11-(4-Nitrophenyl)-4,10-dimethyl-2,8-diphenyl-2,3,8,9-tetraazadispiro[4.0.4.1]undeca-3,9-diene-1,7-dione] | 114 ± 6.37 µM | – | 3.3 ± 1 µM | 3.31 µM | – | –
COc1ccccc1C1[C@@]2(C(=O)N(c3ccccc3)N=C2C)[C@]12C(=O)N(c1ccccc1)N=C2C (relative stereo) [4f, (5R*,6R*)-11-(2-Methoxyphenyl)-4,10-dimethyl-2,8-diphenyl-2,3,8,9-tetraazadispiro[4.0.4.1]undeca-3,9-diene-1,7-dione] | – | – | 12.8 ± 1.2 µM | 12.8 µM | – | –
